Results from patent US10407463B2, “Method for producing alpha-form crystal of reduced glutathione, and method for storing said crystal” (KYOWA HAKKO BIO CO., LTD., priority 2015, dated 2019).
Marks after values point to notes of the source that are not given here. Peptide text beside a SMILES is read from it.

Columns and labels:
[1] = Suppression of transition to β-form crystal by habit modifier in α-form crystal slurry (Example 1); type: physicochemical; conditions: 0.45 g added to 9 g α-form crystals in 30 mL water; 25° C., 24 hr; microscopic observation
Experimental: α-Form crystals of reduced glutathione (9 g) and water (30 mL) were mixed in a glass bottle. […] The glass bottle was shaken in a tray dryer set to 25° C. for 24 hr.

[2] = not told
From the text: The crystals precipitated during stirring are observed under a microscope, and it is judged whether the crystals are all α-form crystals or development of β-form crystal or transition to β-form crystal has occurred. Since the shape of α-form crystal, which is a large columnar crystal, is markedly different from that of β-form crystal, which is a small needle crystal, they can easily be distinguished by microscopic observation. […] The permeability can be expressed by permeability (T %) 430 nm=100×10^−A (A=Abs: 430 nm, 1 cm). When β-form crystal having low solubility is present, the permeability of the solution is lowered since the crystals left undissolved are detected as turbidity. Since the development of β-form crystal causes crystallization and a lower concentration of reduced glutathione in the solution in the slurry than that of a solution containing α-form crystal alone, the kind of the coexisting crystals can also be distinguished by measuring the concentration of reduced glutathione in the mother liquor from which the coexisting crystals have been removed. The concentration of reduced glutathione in the mother liquor is measured by removing the coexisting crystals by filtration and the like, diluting same with mobile phase to a given concentration, maintaining with stirring for a sufficient time, and measuring the concentration under the following HPLC conditions.
After 3 hr, the crystals (each 1 g) were dissolved in water (10 mL) at 25° C., the permeability at 430 nm was measured, and the turbidity was confirmed to determine the presence or absence of transition to β-form crystal.

[3] = Amount of habit modifier needed to suppress β-form crystal development in aqueous reduced glutathione solution (Example 4); type: physicochemical; conditions: 10° C.
From the text: The results of the elapsed time and changes in the concentration of reduced glutathione due to the presence or absence of a habit modifier are shown in Table 3.

[4] = Concentration crystallization of reduced glutathione with habit modifier, production method (1) (Example 5); type: physicochemical; conditions: 2.5 g added to 50 g reduced glutathione; concentrate cooled to 25° C., stirred 24 hr; microscopic observation
Experimental: (§1) Reduced glutathione (50 g) and water (500 mL) were added to a 1 L beaker. […] The prepared solution (filtrate) was concentrated by an evaporator such that the concentration of reduced glutathione was not less than the saturation solubility of α-form crystal to perform concentration crystallization of reduced glutathione.

[5] = Concentration crystallization of reduced glutathione with 10 wt % habit modifier, production method (2) (Example 6); type: physicochemical; conditions: 10 wt % added; concentrate cooled to 25° C., stirred 24 hr; microscopic observation
Experimental: as §1

[6] = at 10° C., in water
From the text: The crystal of reduced glutathione includes two kinds of crystal polymorphs of α-form crystal and β-form crystal (non-patent document 1). […] Therefore, the β-form crystal having low solubility is associated with problems that it is difficult to process as a raw material and cannot be handled with ease.

**Q.** With `C[C@H](N)C(=O)N[C@@H](CS)C(=O)O` [AlaCys, L-alanyl-L-cysteine] (H-Ala-Cys-OH) as the molecule, how does the “transition of α-form crystal to β-form crystal” value (“transition of α-form crystal” below) [1] read?
**A.** suppression of the transition

**Q.** What about the “permeability (%)” value [2] of the same molecule?
**A.** 99%

**Q.** For `O=C(O)[C@H]1CCCN1` [D-Pro, D-proline], which “transition of α-form crystal” value [1] is on record?
**A.** suppression of the transition

**Q.** What does the source list for `C[C@H](N)C(=O)O` [L-Ala, L-alanine]?
**A.** transition of α-form crystal to β-form crystal [1]: suppression of the transition; development of β-form crystal ([3]; 0.01 wt %-1 wt % added, 15 hr): suppressed development of β-form crystal; concentration (g/L) of reduced glutathione ([3]; amount added 0.01%, elapsed time 0 h): 94.2* g/L; concentration (g/L) of reduced glutathione ([3]; amount added 0.01%, elapsed time 15 h): 89.2* g/L; concentration (g/L) of reduced glutathione ([3]; amount added 0.1%, elapsed time 0 h): 94.2* g/L; concentration (g/L) of reduced glutathione ([3]; amount added 0.1%, elapsed time 15 h): 91.2* g/L; concentration (g/L) of reduced glutathione ([3]; amount added 1.0%, elapsed time 0 h): 94.2* g/L; concentration (g/L) of reduced glutathione ([3]; amount added 1.0%, elapsed time 15 h): 92.6* g/L; permeability (%) [2]: 100%; crystal form produced [4]: produced α-form crystal alone; crystal form produced [5]: produced α-form crystal alone

**Q.** With `N[C@@H](CS)C(=O)O` [L-Cys, L-cysteine] as the molecule, how does the “transition of α-form crystal” value [1] read?
**A.** suppression of the transition

**Q.** What about the “permeability (%)” value [2] of the same molecule?
**A.** 100%

**Q.** And the crystal form produced [4]?
**A.** produced α-form crystal alone

**Q.** What about the crystal form produced [5] of the same molecule?
**A.** produced α-form crystal alone

**Q.** With `Cl.N[C@@H](Cc1c[nH]cn1)C(=O)O` [L-His, L-histidine hydrochloride, reference compound] as the molecule, how does the “permeability (%)” value [2] read?
**A.** 95%

**Q.** With `N[C@@H](Cc1ccccc1)C(=O)O` [L-Phe, L-phenylalanine] as the molecule, how does the “transition of α-form crystal” value [1] read?
**A.** suppression of the transition

**Q.** And the “permeability (%)” value [2]?
**A.** 100%

**Q.** For `N[C@@H](Cc1c[nH]c2ccccc12)C(=O)O` [L-Trp, L-tryptophan], which “transition of α-form crystal” value [1] is on record?
**A.** suppression of the transition

**Q.** And the “permeability (%)” value [2]?
**A.** 99%

**Q.** With `N[C@@H](CCC(=O)N[C@@H](CS)C(=O)NCC(=O)O)C(=O)O` [α-form crystal, reduced glutathione] as the molecule, how does the saturated solubility [6] read?
**A.** 89 mg/mL

**Q.** For `N[C@@H](CCC(=O)N[C@@H](CS)C(=O)NCC(=O)O)C(=O)O` [β-form crystal, reduced glutathione], which saturated solubility [6] is on record?
**A.** 30 mg/mL
